The record followed here is paper PMC10384936, “Identification and Biological Characterization of the Pyrazolo[3,4-d]pyrimidine Derivative SI388 Active as Src Inhibitor” (Pharmaceuticals, 2023).

One data set concerns the target T1, Src (Homo sapiens, UniProt P12931).
T1 construct: purchased Merck-Millipore
The data set is described as follows: Src enzymatic assay (ADP-Glo kinase assay). The class given is biochemical. Particulars: for Ki: mean of at least three experiments, 100 μM ATP. Here is the method: (§1) Src, Fyn, and Abl were purchased from Merck-Millipore. Reactions were performed according to the manufacturer’s instructions with minor modifications. All substrates were used at least at twice the concentration of apparent Km. In detail: Src reactions were performed using 500 μM Src-peptide (KVEKIGEGTYGVVYK), 100 μM ATP, and 0.00087% NP-40; Fyn reactions were performed using 360 μM Src-peptide (KVEKIGEGTYGVVYK), 200 μM ATP, and 0.0026% NP-40; Abl reactions were performed using 50 μM abltide (EAIYAAPFAKKK), 30 μM ATP, and 0.00087% NP-40. All reactions were performed using 10–50 ng of enzyme and 10% DMSO in 10 μL of kinase buffer (8 mM MOPS-NaOH pH7.0, 0.2 mM EDTA, 10 mM MgAc) at 30 °C for 10 min.
(§2) To avoid peptide adsorbing to the plastic surface, protein low-binding tubes were used. ADP-Glo kinase assay (Promega) was then used to detect kinase activity according to the manufacturer’s instructions with minor modifications. In detail, reactions were transferred to white 384 well-plates and stopped by adding 10 µL of ADP-Glo reagent (Promega) for 50 min at room temperature. A total of 20 μL of detection reagent (Promega) was then added for 30 min and the reaction read using a GloMax Discover microplate reader (Promega). Data were plotted using GraphPad Prism 5.0. IC50 values were obtained according to Equation (1):v = V/{1 + (I/IC50)} (1) where v is the measured reaction velocity, V is the apparent maximal velocity in the absence of inhibitor, I is the inhibitor concentration, and IC50 is the 50% inhibitory dose. Compounds tested were assumed to act as fully ATP-competitive inhibitors. Therefore, Ki values were calculated according to Equation (2):Ki = IC50/(1+ […]) (2) where Ki is the affinity of the inhibitor to the enzyme, S is the ATP concentration, and Km is the affinity of ATP calculated according to the Michaelis–Menten equation.
In general terms: ADP-Glo turns the ADP formed in a reaction into a luminescent signal.

The target of the next data set is T2, Abl (Homo sapiens, UniProt P00519).
T2 construct: purchased Merck-Millipore
T2 sequence (P00519 whole entry, species assumed): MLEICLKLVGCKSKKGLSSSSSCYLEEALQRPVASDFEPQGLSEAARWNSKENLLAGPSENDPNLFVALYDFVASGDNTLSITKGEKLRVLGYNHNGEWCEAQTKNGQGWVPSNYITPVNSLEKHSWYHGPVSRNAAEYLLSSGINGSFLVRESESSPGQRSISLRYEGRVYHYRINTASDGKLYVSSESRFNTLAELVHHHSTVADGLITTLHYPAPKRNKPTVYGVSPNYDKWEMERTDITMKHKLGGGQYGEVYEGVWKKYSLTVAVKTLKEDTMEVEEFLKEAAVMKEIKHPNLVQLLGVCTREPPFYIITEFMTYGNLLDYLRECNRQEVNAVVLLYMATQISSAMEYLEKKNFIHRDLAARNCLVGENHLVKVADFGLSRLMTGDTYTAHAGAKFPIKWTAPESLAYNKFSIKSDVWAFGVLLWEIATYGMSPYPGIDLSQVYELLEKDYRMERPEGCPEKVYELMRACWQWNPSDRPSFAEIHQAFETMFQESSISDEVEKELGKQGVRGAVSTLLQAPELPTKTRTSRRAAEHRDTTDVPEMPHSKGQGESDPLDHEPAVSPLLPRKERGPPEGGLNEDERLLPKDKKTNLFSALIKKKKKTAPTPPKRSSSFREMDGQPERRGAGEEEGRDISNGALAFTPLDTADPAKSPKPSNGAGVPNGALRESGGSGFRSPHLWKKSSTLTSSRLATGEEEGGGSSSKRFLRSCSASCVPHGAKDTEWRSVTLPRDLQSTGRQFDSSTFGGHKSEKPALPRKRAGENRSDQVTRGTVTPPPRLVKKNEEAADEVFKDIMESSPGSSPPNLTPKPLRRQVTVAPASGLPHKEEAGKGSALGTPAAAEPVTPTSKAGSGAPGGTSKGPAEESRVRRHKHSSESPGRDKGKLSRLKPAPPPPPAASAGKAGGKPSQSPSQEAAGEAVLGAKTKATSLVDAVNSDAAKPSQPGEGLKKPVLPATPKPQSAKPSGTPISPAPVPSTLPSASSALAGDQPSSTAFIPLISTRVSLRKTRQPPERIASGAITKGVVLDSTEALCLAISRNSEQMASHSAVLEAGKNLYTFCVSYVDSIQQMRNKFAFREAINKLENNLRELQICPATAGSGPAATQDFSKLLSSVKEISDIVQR
Put plainly: Abl enzymatic assay (ADP-Glo kinase assay). The class given is biochemical. Here is the method: as §1, §2

Another data set concerns the target T3, Fyn (Homo sapiens, UniProt P06241).
T3 construct: purchased Merck-Millipore
Put plainly: Fyn enzymatic assay (ADP-Glo kinase assay). The class given is biochemical. Conditions: for Ki: mean of at least three experiments, 200 μM ATP. As to the method:
as §1, §2

T3 sequence (P06241 whole entry, species assumed): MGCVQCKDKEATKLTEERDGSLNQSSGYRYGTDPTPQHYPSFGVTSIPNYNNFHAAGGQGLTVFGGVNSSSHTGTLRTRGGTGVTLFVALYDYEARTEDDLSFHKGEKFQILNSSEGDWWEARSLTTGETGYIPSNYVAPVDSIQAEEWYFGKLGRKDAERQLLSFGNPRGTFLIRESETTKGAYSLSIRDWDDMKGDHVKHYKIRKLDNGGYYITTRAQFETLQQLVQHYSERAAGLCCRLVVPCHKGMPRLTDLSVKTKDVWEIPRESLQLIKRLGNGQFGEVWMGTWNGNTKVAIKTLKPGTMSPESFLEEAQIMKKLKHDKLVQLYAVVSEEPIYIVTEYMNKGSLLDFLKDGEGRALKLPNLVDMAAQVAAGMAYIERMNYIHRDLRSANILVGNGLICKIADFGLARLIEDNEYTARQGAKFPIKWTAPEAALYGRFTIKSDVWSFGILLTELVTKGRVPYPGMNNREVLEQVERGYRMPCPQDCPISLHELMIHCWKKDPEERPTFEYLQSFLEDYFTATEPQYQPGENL
T1 sequence (P12931 whole entry, species assumed): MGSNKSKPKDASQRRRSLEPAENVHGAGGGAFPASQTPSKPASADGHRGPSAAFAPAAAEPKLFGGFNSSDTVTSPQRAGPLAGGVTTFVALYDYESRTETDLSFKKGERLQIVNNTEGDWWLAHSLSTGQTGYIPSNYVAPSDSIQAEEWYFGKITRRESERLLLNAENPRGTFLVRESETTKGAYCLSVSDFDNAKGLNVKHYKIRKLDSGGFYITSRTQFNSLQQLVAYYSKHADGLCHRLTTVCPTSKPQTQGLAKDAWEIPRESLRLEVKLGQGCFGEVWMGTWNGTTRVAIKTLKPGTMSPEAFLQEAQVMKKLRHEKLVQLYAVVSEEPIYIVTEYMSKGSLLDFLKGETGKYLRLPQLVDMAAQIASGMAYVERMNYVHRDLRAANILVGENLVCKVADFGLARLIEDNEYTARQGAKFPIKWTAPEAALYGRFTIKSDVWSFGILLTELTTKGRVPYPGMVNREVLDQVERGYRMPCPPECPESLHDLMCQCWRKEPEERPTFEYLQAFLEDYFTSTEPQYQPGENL

Consider `CSc1nc(Nc2ccccc2)c2cnn(CC(Cl)c3ccc(F)cc3)c2n1` (centres unmarked) [2p, 1-(2-Chloro-2-(4-fluorophenyl)ethyl)-6-(methylthio)-N-phenyl-1H-pyrazolo[3,4-d]pyrimidin-4-amine], for which the melting point (commonly the temperature, or range, at which the solid turns liquid) lay in the range of 227 to 230 °C. Also, at Src, the inhibition (in general, the percentage by which the read-out fell short of the control) at 1 µM is 14%; the inhibition at 10 µM is 55%; the affinity, expressed as Ki, was 14.4 ± 4.4 µM. Also, at Abl, the inhibition at 10 µM was 12%. In addition, at Fyn, the inhibition at 1 µM amounted to 15%; the inhibition at 10 µM was found to be 60%; the affinity, expressed as Ki, was 2.68 ± 0.37 µM.

Compound `ClC(Cn1ncc2c(Nc3ccccc3)nc(C3CCCCC3)nc21)c1ccccc1` (centres unmarked) [2j, 1-(2-Chloro-2-phenylethyl)-6-cyclohexyl-N-phenyl-1H-pyrazolo[3,4-d]pyrimidin-4-amine] displayed a melting point of 134 to 136 °C. On Src, 10 µM produced 5% inhibition and the inhibition at 100 µM worked out at 95.3%. Besides, the inhibition at 1 µM against Abl is 39%. Moreover, on Fyn, the inhibition at 10 µM was 13% and the inhibition at 100 µM is 38%.

For `FC(F)(F)c1nc(Nc2cccc(Cl)c2)c2cnn(CC(Cl)c3ccccc3)c2n1` (centres unmarked) [2m, N-(3-Chlorophenyl)-1-(2-chloro-2-phenylethyl)-6-trifluoromethyl-1H-pyrazolo[3,4-d]pyrimidin-4-amine], the melting point was in the range of 88 to 90 °C. Moreover, the inhibition at 10 µM at Src was determined as 67%. At Abl, this compound showed an inhibition at 1 µM of 15% and an inhibition at 10 µM of 18%. At Fyn, this compound displayed an inhibition at 1 µM of 2.5% and an inhibition at 10 µM of 20%.

`CSc1nc(Nc2ccc(Cl)cc2)c2cnn(CC(Cl)c3ccccc3)c2n1` (centres unmarked) [2b, 1-(2-Chloro-2-phenylethyl)-N-(4-chlorophenyl)-6-(methylthio)-1H-pyrazolo[3,4-d]pyrimidin-4-amine]: on Src, the “Activity towards Src in cell-free assay (in words)” value is “inactive” and 1 µM produced 24% inhibition. Besides, at Abl, the “Activity towards Bcr-Abl in cell-free assay (in words)” value is “inactive” and 10 µM produced 23% inhibition.

Turning to `FC(F)(F)c1nc(Nc2ccccc2)c2cnn(CC(Cl)c3ccccc3)c2n1` (centres unmarked) [2k, 1-(2-Chloro-2-phenylethyl)-N-phenyl-6-(trifluoromethyl)-1H-pyrazolo[3,4-d]pyrimidin-4-amine], the melting point was in the range of 139 to 141 °C. In addition, at Src, testing at 10 µM gave an inhibition of 50.3% and the inhibition at 100 µM was 99.2%. For the same compound, the inhibition at 10 µM against Abl amounted to 39%. At Fyn, the inhibition at 10 µM worked out at 47%; testing at 100 µM gave an inhibition of 66%; the Ki (in general, a dissociation constant, usually derived from enzyme kinetics or from competition with a known ligand) was 3.79 ± 1.01 µM.

For `ClC(Cn1ncc2c(Nc3ccccc3)nc(-c3ccccc3)nc21)c1ccccc1` (centres unmarked) [2n, 1-(2-Chloro-2-phenylethyl)-N,6-diphenyl-1H-pyrazolo[3,4-d]pyrimidin-4-amine], the melting point was 130 to 140 °C (dec.). At Src, this compound returned an inhibition at 1 µM of 11% and an inhibition at 10 µM of 13%. On Abl, the inhibition at 1 µM worked out at 5% and the inhibition at 10 µM was found to be 18%. At Fyn, the inhibition at 1 µM was 16% and the inhibition at 10 µM is 23%.

For `Cc1nc(Nc2ccccc2)c2cnn(CC(Cl)c3ccc(Cl)cc3)c2n1` (centres unmarked) [2q, 1-(2-Chloro-2-(4-chlorophenyl)ethyl)-6-methyl-N-phenyl-1H-pyrazolo[3,4-d]pyrimidin-4-amine], the melting point fell in the range of 202 to 203 °C. Besides, on Src, the inhibition at 1 µM came to 29%, testing at 10 µM gave an inhibition of 48% and the affinity corresponds to a Ki of 16.5 ± 4 µM. In addition, on Abl, 1 µM produced 20% inhibition and the inhibition at 10 µM is 25%. At Fyn, this compound yielded an inhibition at 1 µM of 24%, an inhibition at 10 µM of 78% and a Ki of 2.07 ± 1.1 µM.

In the case of `Fc1cccc(Nc2nc(C(F)(F)F)nc3c2cnn3CC(Cl)c2ccccc2)c1` (centres unmarked) [2l, 1-(2-Chloro-2-phenylethyl)-N-(3-fluorophenyl)-6-(trifluoromethyl)-1H-pyrazolo[3,4-d]pyrimidin-4-amine], the melting point lay within 164 to 166 °C. The inhibition at 1 µM against Abl was found to be 40%. At Fyn, this compound displayed an inhibition at 1 µM of 19% and an inhibition at 10 µM of 10%.

Regarding `CCSc1nc(Nc2ccccc2)c2cnn(CC(Cl)c3ccccc3)c2n1` (centres unmarked) [2c, 1-(2-Chloro-2-phenylethyl)-6-(ethylthio)-N-phenyl-1H-pyrazolo[3,4-d]pyrimidin-4-amine], the melting point was 128 to 131 °C. On Src, this compound registered an inhibition at 1 µM of 16% and an inhibition at 10 µM of 27%. Moreover, at Abl, the inhibition at 1 µM is 18% and 10 µM produced 35% inhibition. On Fyn, this compound displayed an inhibition at 1 µM of 33% and an inhibition at 10 µM of 64%.

As for `Oc1cc(Nc2nc(SCCN3CCOCC3)nc3c2cnn3CC(Cl)c2ccccc2)c(F)cc1F` (centres unmarked) [2g, 5-((1-(2-Chloro-2-phenylethyl)-6-((2-morpholinoethyl)thio)-1H-pyrazolo[3,4-d]pyrimidin-4-yl)amino)-2,4-difluorophenol], the melting point is 146 to 149 °C. On Src, this compound had an inhibition at 1 µM of 43.3% and an inhibition at 10 µM of 93.6%. Besides, on Abl, the inhibition at 1 µM was 33.5% and testing at 10 µM gave an inhibition of 83%.

`CCc1nc(Nc2ccccc2)c2cnn(CC(Cl)c3ccccc3)c2n1` (centres unmarked) [2h, 1-(2-Chloro-2-phenylethyl)-6-ethyl-N-phenyl-1H-pyrazolo[3,4-d]pyrimidin-4-amine] had a melting point of 174 to 176 °C. Further, on Src, the inhibition at 10 µM was 12% and the inhibition at 100 µM stood at 98.3%. The compound further returned an inhibition at 1 µM on Abl of 34%. At Fyn, this compound had an inhibition at 10 µM of 57%, an inhibition at 100 µM of 82% and a Ki of 10.3 ± 3.13 µM.

As for `Cl.Oc1cc(Nc2nc(SCCN3CCOCC3)nc3c2cnn3CC(Cl)c2ccccc2)ccc1F` (centres unmarked) [2f, 5-({1-(2-Chloro-2-phenylethyl)-6-[(2-morpholinoethyl)thio]-1H-pyrazolo[3,4-d]pyrimidin-4-yl)amino)-2-fluorophenol hydrochloride], the melting point lay in the range of 238 to 239 °C. This compound also displayed an inhibition at 10 µM on Src of 79%. Also, on Abl, testing at 1 µM gave an inhibition of 3% and 10 µM produced 67% inhibition.

Turning to `CC(C)Sc1nc(Nc2cccc(Cl)c2)c2cnn(CC(Cl)c3ccccc3)c2n1` (centres unmarked) [2d, 1-(2-Chloro-2-phenylethyl)-N-(3-chlorophenyl)-6-(isopropylthio)-1H-pyrazolo[3,4-d]pyrimidin-4-amine], the inhibition at 10 µM at Src was 34%; on Abl it was 24%; at Fyn, 8%. Also, the figures for the inhibition at 100 µM against Src and against Fyn were 99.5% and 26%, respectively.

`Clc1ccccc1Nc1nc(SCCN2CCOCC2)nc2c1cnn2CC(Cl)c1ccccc1` (centres unmarked) [2e, 1-(2-Chloro-2-phenylethyl)-N-(2-chlorophenyl)-6-((2-morpholinoethyl)thio)-1H-pyrazolo[3,4-d]pyrimidin-4-amine]: the melting point was 117 to 118 °C. This compound also yielded an inhibition at 10 µM on Abl of 26.3%.

`CCCc1nc(Nc2ccccc2)c2cnn(CC(Cl)c3ccc(Cl)cc3)c2n1` (centres unmarked) [2s, 1-(2-Chloro-2-(4-chlorophenyl)ethyl)-N-phenyl-6-propyl-1H-pyrazolo[3,4-d]pyrimidin-4-amine] displayed a melting point of 154 to 156 °C. Besides, the Ki at Fyn came to 10.2 ± 2.11 µM.

For the compound `Clc1cccc(Nc2nc(C3CCCC3)nc3c2cnn3CC(Cl)c2ccccc2)c1` (centres unmarked) [2i, 1-(2-Chloro-2-phenylethyl)-N-(3-chlorophenyl)-6-cyclopentyl-1H-pyrazolo[3,4-d]pyrimidin-4-amine], the melting point was in the range of 189 to 190 °C. For the same compound, on Src, the inhibition at 10 µM worked out at 56% and the inhibition at 100 µM stood at 98.8%. On Fyn, the inhibition at 10 µM turned out to be 15% and the inhibition at 100 µM was 19%.

The compound `CCc1nc(Nc2ccccc2)c2cnn(CC(Cl)c3ccc(Cl)cc3)c2n1` (centres unmarked) [2r, 1-(2-Chloro-2-(4-chlorophenyl)ethyl)-6-ethyl-N-phenyl-1H-pyrazolo[3,4-d]pyrimidin-4-amine] gave a melting point of 193 to 195 °C. On Src, this compound showed an inhibition at 10 µM of 7.5%. In addition, at Fyn, testing at 1 µM gave an inhibition of 48%, 10 µM produced 75% inhibition and the inhibitory constant (Ki) is 1.74 ± 0.71 µM.

The compound `Clc1cccc(Nc2nc(-c3ccccc3)nc3c2cnn3CC(Cl)c2ccccc2)c1` (centres unmarked) [2o, 1-(2-Chloro-2-phenylethyl)-N-(3-chlorophenyl)-6-phenyl-1H-pyrazolo[3,4-d]pyrimidin-4-amine] returned a melting point of 82 to 84 °C. The same compound came in with an inhibition at 10 µM at Fyn of 8%.
